Source: patent US20210379010A1, “COMPOSITIONS COMPRISING CANNABINOIDS FOR USE IN THE TREATMENT OF BIOFILM AND CONDITIONS ASSOCIATED WITH MICROBIAL, FUNGAL, BACTERIAL INFECTIONS” (Yissum Research Development Company of The Hebrew …, priority 2018, published 2021)
≈ marks a conversion by molar mass, not a printed value. Where “and” joins values, the source holds several entries; their conditions need not be identical. Identical values can stand only once.

Experiments:
[1] = system: S.aureus MRSA 43300 biofilm; experiment: Biofilm formation of MRSA 43300, cannabinoid alone and combined with antibiotic (MBIC/FBIC/FBICI); format: cell-based; conditions: for MBIC AEA: AEA alone; for MBIC ARAS: ARAS alone
[2] = system: S. mutans biofilm; experiment: CLSM live/dead staining of S. mutans biofilm
Method: The bacterial viability and vitality of was analyzed by CLSM (Olympus Fluoview 300, Olympus, Japan) with a UPLSA 10×/0.4 lenses. The biofilm samples were grown overnight on 96 well. The biofilm was washed carefully using 200 μl PBS solution after overnight incubation, and then stained with 50 μl of LIVE/DEAD BacLight fluorescent dye (Invitrogen Life Technologies, Carlsbad, Calif., USA) (1:100) for 20 min in the dark, at room temperature. This staining allowed to distinguish the live organisms from the dead ones. […] The biofilm thickness was examined by generating the optical sections that were acquired at spacing steps of 10 μm Image J program (The National Institute of Health) was used for fluorescence analysis which calculates the fluorescence intensity per area for each color separately.

[3] = system: C. albicans biofilm; experiment: MTT assay of C. albicans biofilm; format: cell-based
Method: To investigate the effect of the agents on preformed biofilms, biofilms were allowed to mature in for 24 h at 37° C. in a 6-well plate. The biofilms were washed twice with PBS. The active agents were then applied. The plates were further incubated for 24 h at 37° C. The amounts of biofilms, were determined quantitatively using a standard MTT reduction assay as described previously. Briefly, biofilms were overlaid with […] of 3-(4,5-dimethyl-2-thiazolyl)-2,5-diphenyl-2H-tetrazolium bromide (MTT) and incubated for 2 h at 37° C. Under these conditions, the lightly yellowish MTT was reduced to a blue tetrazolium salt accumulated within the metabolic active biofilms. The stain was then dissolved in DMSO and the absorbance value was measured at 570 nm. The accumulation of tetrazolium salt by the reduction of MTT is proportional to the number of viable cells growing in biofilm. Prior to dissolving in DMSO, biofilms were photographed and visualized. Assay was performed in triplicate.

[4] = system: S. mutans biofilm; experiment: S. mutans biofilm formation inhibition; format: cell-based
[5] = system: S. aureus MRSA 24433 biofilm; experiment: Biofilm formation of MRSA 24433, cannabinoid alone and combined with antibiotic (MBIC/FBIC/FBICI); format: cell-based; conditions: for MBIC AEA: AEA alone; for FBIC AEA: MBIC of AEA in combination with methicillin
[6] = system: S.aureus MRSA 43300; experiment: Growth of MRSA 43300, cannabinoid alone and combined with antibiotic (MIC/FIC/FICI); format: cell-based; conditions: MRSA 43300 growth; for MIC AEA: AEA alone; for MIC ARAS: ARAS alone
[7] = system: S.aureus MRSA 33592 biofilm; experiment: Biofilm formation of MRSA 33592, cannabinoid alone and combined with antibiotic (MBIC/FBIC/FBICI); format: cell-based; conditions: for MBIC AEA: AEA alone; for MBIC ARAS: ARAS alone
[8] = system: MRSA strain CI; experiment: Colony spreading on soft agar, MRSA CI
Method: (§1) The swimming assay was performed on soft agar plates. 0.2% agar medium was prepared and autoclaved. The bacteria were exposed to the tested agents. 3 μl of overnight bacterial culture (O.D 595˜0.5) was inoculated at the centre of the agar plate. […] The plates were then incubated for 15 h.

[9] = system: S. aureus MRSA 24433; experiment: Growth of MRSA 24433, cannabinoid alone and combined with antibiotic (MIC/FIC/FICI); format: cell-based; conditions: MRSA 24433 growth; for MIC AEA: AEA alone; for FIC AEA: MIC of AEA in combination with methicillin
[10] = system: P. aeruginosa biofilm; experiment: CLSM of treated P. aeruginosa biofilm
[11] = system: V. harveyi quorum sensing; experiment: Quorum sensing assay, relative bioluminescence of V. harveyi mutant strains; format: cell-based; conditions: sub-MIC concentrations, dose response up to 100 μg/ml
Text: FIG. 6 Relative Bioluminescence Unit (LUM/(O.D(595 nm))) (RLU) of different mutant strains of bacteria V. harveyi when exposed to different sub-MIC concentrations of AEA.

[12] = system: MRSA strain 43300; experiment: Colony spreading on soft agar, MRSA 43300
Method: as §1

[13] = system: S.aureus MRSA 33592; experiment: Growth of MRSA 33592, cannabinoid alone and combined with antibiotic (MIC/FIC/FICI); format: cell-based; conditions: MRSA 33592 growth; for MIC AEA: AEA alone, in µg/mL; for MIC ARAS: ARAS alone
[14] = system: MRSA strain 33592; experiment: Colony spreading on soft agar, MRSA 33592
Method: as §1

[15] = system: S. mutans; experiment: S. mutans growth (MIC); format: cell-based; conditions: Streptococcus mutans; single S. mutans growth; read-out: MIC
[16] = system: fluconazole resistant C. albicans strain DSY735 biofilm; conditions: Table 2
[17] = system: mixed S. mutans-C. albicans; experiment: Growth of C. albicans-S. mutans co-culture; format: cell-based; conditions: mixed S. mutans-C. albicans growth
[18] = system: mixed C. albicans-S. mutans biofilm; experiment: Co-species C. albicans-S. mutans biofilm formation inhibition; format: cell-based
[19] = system: C. albicans biofilm; experiment: C. albicans biofilm formation inhibition; format: cell-based; conditions: single C. albicans biofilm formation
[20] = system: C. albicans; experiment: C. albicans growth (MIC); format: cell-based; conditions: Candida albicans; single C. albicans growth; highest tested dose 64 μg/ml; read-out: MIC, fungal growth
[21] = system: fluconazole resistant C. albicans strain DSY551 biofilm; conditions: Table 2
[22] = system: fluconazole resistant C. albicans strains; format: cell-based; conditions: each agent alone or in combination; data not shown
[23] = MBIC of ARAS in combination with fluconazole

CCCCC/C=C\C/C=C\C/C=C\C/C=C\CCCC(=O)NCCO [AEA, arachidonoyl ethanolamide]
MBIC AEA ([1]; Table 6C): >256 | MBIC AEA ([1]; Table 8B): >256 | FBIC AEA ([1]; MBIC of AEA in combination with ampicillin, Table 8B): 16 | FBIC AEA ([1]; MBIC of AEA in combination with methicillin, Table 6C): 32 | S. mutans biofilm formation (CLSM) [2]: dose-dependent inhibition | C. albicans biofilm formation (MTT assay) [3]: dose-dependent inhibition | inhibition of S. mutans biofilm formation ([4]; highest tested dose of 64 μg/ml): 45% | MBIC AEA ([5]; Table 1): 32 µg/mL | MBIC AEA ([5]; Table 6B): 32 | FBIC AEA ([5]; Table 1): 8 µg/mL | FBIC AEA ([5]; Table 6B): 8 | MIC AEA ([6]; Table 6C): > 256 µg/mL | MIC AEA ([6]; Table 8B): > 256 µg/mL | FIC AEA ([6]; MIC of AEA in combination with ampicillin, Table 8B): 16 | FIC AEA ([6]; MIC of AEA in combination with methicillin, Table 6C): 16 | MBIC AEA ([7]; Table 6A): 64 | MBIC AEA ([7]; Table 7): 64 | MBIC AEA ([7]; Table 8A): 64 | FBIC AEA ([7]; MBIC of AEA in combination with ampicillin, Table 8A): 8 | FBIC AEA ([7]; MBIC of AEA in combination with gentamicin, Table 7): 8 | FBIC AEA ([7]; MBIC of AEA in combination with methicillin, Table 6A): 8 | reduction of colony diameter (spreading) vs untreated control ([8]; AEA 64 μg/ml): 88% and 88 ± 1.9% | MIC AEA ([9]; Table 1): >64 µg/mL | MIC AEA ([9]; Table 6B): > 256 µg/mL | FIC AEA ([9]; Table 1): 16 µg/mL | FIC AEA ([9]; Table 6B): 16 | layers/depth of P. aeruginosa biofilm [10]: reduced layers/depth of biofilm | P. aeruginosa biofilm density ([10]; compared with PEA): more significant reduction in biofilm density | quorum sensing (relative bioluminescence, AUC vs control) [11]: inhibition | reduction of colony diameter (spreading) vs untreated control ([12]; AEA 64 μg/ml): 73% and 73 ± 2.6% | MIC AEA ([13]; Table 6A): >256 | MIC AEA ([13]; Table 7): >256 | MIC AEA ([13]; Table 8A): >256 | decrease of MIC in combination ([13]; AEA with gentamicin vs agent alone): more than 32 fold | FIC AEA ([13]; MIC of AEA in combination with ampicillin, Table 8A): 8 | FIC AEA ([13]; MIC of AEA in combination with gentamicin, Table 7): 8 | FIC AEA ([13]; MIC of AEA in combination with methicillin, Table 6A): 16 | reduction of colony diameter (spreading) vs untreated control ([14]; AEA 64 μg/ml): 84% and 84 ± 1.8%

CCCCC/C=C\C/C=C\C/C=C\C/C=C\CCCC(=O)N[C@@H](CO)C(=O)O [ARAS, arachidonoyl serine]
MBIC ARAS ([1]; Table 3C): 32 | MBIC ARAS ([1]; Table 5B): 32 | FBIC ARAS ([1]; MBIC of ARAS in combination with ampicillin, Table 5B): 8 | FBIC ARAS ([1]; MBIC of ARAS in combination with methicillin, Table 3C): 8 | MIC [15]: 64 µg/mL (≈ 163 µM) | MBIC ARAS ([16]; ARAS alone): 64 µg/mL | FBIC ARAS [16, 23]: 32 µg/mL | MIC [17]: > 64 µg/mL | inhibition at 8 µg/mL ([4]; Streptococcus mutans, 8 μg/ml, read-out: inhibition of single S. mutans biofilm formation): > 50% | MBIC ARAS ([5]; ARAS alone, Table 3B): 32 | FBIC ARAS ([5]; MBIC of ARAS in combination with methicillin, Table 3B): 16 | MBIC50 [18]: 32 µg/mL | MIC ARAS ([6]; Table 3C): 64 µg/mL | MIC ARAS ([6]; Table 5B): 64 µg/mL | FIC ARAS ([6]; MIC of ARAS in combination with ampicillin, Table 5B): 16 | FIC ARAS ([6]; MIC of ARAS in combination with methicillin, Table 3C): 16 | MBIC ARAS ([7]; Table 3A): 32 | MBIC ARAS ([7]; Table 4): 32 | MBIC ARAS ([7]; Table 5A): 32 | FBIC ARAS ([7]; MBIC of ARAS in combination with ampicillin, Table 5A): 16 | FBIC ARAS ([7]; MBIC of ARAS in combination with gentamycin, Table 4): 4 | FBIC ARAS ([7]; MBIC of ARAS in combination with methicillin, Table 3A): 16 | inhibition of colony spreading vs untreated control ([8]; ARAS 64 μg/ml (sub-MIC)): 64% and 64 ± 2.5% | MIC ARAS ([9]; ARAS alone, Table 3B): > 256 µg/mL | FIC ARAS ([9]; MIC of ARAS in combination with methicillin, Table 3B): >64 | inhibition of colony spreading vs untreated control ([12]; ARAS 32 μg/ml (sub-MIC)): 46% and 46 ± 2.8% | MBIC50 (minimal biofilm inhibitory concentration 50, 50% of biofilm inhibition) [19]: 16 µg/mL | MIC [20]: > 64 µg/mL | MIC ARAS ([13]; Table 3A): 64 µg/mL | MIC ARAS ([13]; Table 4): 32 µg/mL | MIC ARAS ([13]; Table 5A): 32 µg/mL | FIC ARAS ([13]; MIC of ARAS in combination with ampicillin, Table 5A): 8 | FIC ARAS ([13]; MIC of ARAS in combination with gentamycin, Table 4): 4 | FIC ARAS ([13]; MIC of ARAS in combination with methicillin, Table 3A): 16 | inhibition of colony spreading vs untreated control ([14]; ARAS 16 μg/ml (sub-MIC)): 65% and 65 ± 3.4% | MBIC ARAS ([21]; ARAS alone): 64 µg/mL | FBIC ARAS [21, 23]: 32 µg/mL | growth of fluconazole resistant fungal strains [22]: not affected
